Laboratory results: ChEMBL document CHEMBL1201862, “PubChem BioAssay data set” (2004)
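Dose response: 5 concentrations. Exposure: 48 h. Format: 96-well plates. Endpoint: linear interpolation; highest concentration if not reached. Here, GI50 denotes the concentration required for 50% inhibition of growth.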 Activity calls are given as the source filed them. No stated cut-off is given here; in the data, active = GI50 up to about 1.1 µM and inactive = higher.

Columns and labels:
Assay in all cases: NCI anticancer screen, dose series, 48 h
UACC-257 = system: UACC-257
HCT-116 = system: HCT-116
IGROV-1 = system: IGROV-1
SK-MEL-28 = system: SK-MEL-28
EKVX = system: EKVX
KM12 = system: KM12
SF-539 = system: SF-539
Hs-578T = system: Hs-578T
MCF7 = system: MCF7
SF-295 = system: SF-295
SW-620 = system: SW-620
HOP-92 = system: HOP-92
K562 = system: K562
MDA-MB-435 = system: MDA-MB-435
CCRF-CEM = system: CCRF-CEM
HCC 2998 = system: HCC 2998
NCI-H460 = system: NCI-H460
SK-OV-3 = system: SK-OV-3
OVCAR-8 = system: OVCAR-8
Malme-3M = system: Malme-3M

Row | Compound | GI50 (UACC-257) | GI50 (HCT-116) | GI50 (IGROV-1) | GI50 (SK-MEL-28) | GI50 (EKVX) | GI50 (KM12) | GI50 (SF-539) | GI50 (Hs-578T) | GI50 (MCF7) | GI50 (SF-295) | GI50 (SW-620) | GI50 (HOP-92) | GI50 (K562) | GI50 (MDA-MB-435) | GI50 (CCRF-CEM) | GI50 (HCC 2998) | GI50 (NCI-H460) | GI50 (SK-OV-3) | GI50 (OVCAR-8) | GI50 (Malme-3M)
1 | N#CC1(C#N)C2C=CC(C3CC=CC32)C1(C#N)C#N (centres undefined) | 12.7 µM (inactive) | 1.93 µM (inactive) | 9.33 µM (inactive) | 10.9 µM (inactive) | 12.3 µM (inactive) | > 10 µM (inactive) | 9.66 µM (inactive) | 17.9 µM (inactive) | 6.52 µM (inactive) | 21.5 µM (inactive) | 2.13 µM (inactive) | 4.27 µM (inactive) | 2.4 µM (inactive) | 7.16 µM (inactive) | 1.27 µM (inactive) | > 50 µM (inactive) | > 50 µM (inactive) | 45 µM (inactive) | 4.72 µM (inactive) | 2.79 µM (inactive)
2 | CCCCC1CCCCCCc2[nH]c(/C=C3\N=C(c4ccc[nH]4)C=C3OC)cc21 (centres undefined) | 0.13 µM (active) | < 0.01 µM (active) | < 0.0188 µM (active) | < 0.0162 µM (active) | < 0.0167 µM (active) | < 0.01 µM (active) | 0.0308 µM (active) | 0.0331 µM (active) | < 0.0139 µM (active) | < 0.0191 µM (active) | < 0.01 µM (active) | < 0.0119 µM (active) | < 0.01 µM (active) | < 0.01 µM (active) | < 0.01 µM (active) | < 0.01 µM (active) | < 0.01 µM (active) | 0.326 µM (active) | < 0.0223 µM (active) | 0.0241 µM (active)
3 | CC(NNC(=O)c1ccncc1)c1ccccc1 (centres undefined) | > 100 µM (inactive) | > 100 µM (inactive) | > 100 µM (inactive) | > 100 µM (inactive) | > 100 µM (inactive) | > 100 µM (inactive) | > 100 µM (inactive) | > 100 µM (inactive) | > 100 µM (inactive) | > 100 µM (inactive) | > 100 µM (inactive) | > 100 µM (inactive) | > 100 µM (inactive) | > 100 µM (inactive) | > 100 µM (inactive) | > 100 µM (inactive) | – | > 100 µM (inactive) | > 100 µM (inactive) | > 100 µM (inactive)
4 | Cc1cn([C@H]2[C@@H](CO)C[C@H]2O)c(=O)[nH]c1=O | 50.4 µM (inactive) | > 100 µM (inactive) | > 100 µM (inactive) | > 100 µM (inactive) | > 100 µM (inactive) | > 100 µM (inactive) | > 100 µM (inactive) | > 100 µM (inactive) | > 100 µM (inactive) | > 100 µM (inactive) | > 100 µM (inactive) | > 100 µM (inactive) | > 100 µM (inactive) | > 100 µM (inactive) | > 100 µM (inactive) | > 100 µM (inactive) | > 100 µM (inactive) | – | > 100 µM (inactive) | > 100 µM (inactive)
5 | C=C1C[C@]23CC[C@@H]4C(CO)(CO)CC(=O)C[C@]4(C)[C@@H]2CC[C@H]1C3 | > 100 µM (inactive) | > 100 µM (inactive) | 57.9 µM (inactive) | > 100 µM (inactive) | > 100 µM (inactive) | – | > 100 µM (inactive) | > 100 µM (inactive) | > 100 µM (inactive) | > 100 µM (inactive) | > 100 µM (inactive) | > 100 µM (inactive) | > 100 µM (inactive) | > 100 µM (inactive) | > 100 µM (inactive) | > 100 µM (inactive) | > 100 µM (inactive) | > 100 µM (inactive) | > 100 µM (inactive) | > 100 µM (inactive)
6 | CCCCCCC(=O)O[C@H]1CC[C@H]2[C@@H]3CCC4C/C(=N/NC(=O)c5cccc6c(=O)c7ccccc7[nH]c56)C=C(C)[C@]4(C)[C@H]3CC[C@]12C (some centres undefined) | > 25 µM (inactive) | > 25 µM (inactive) | > 25 µM (inactive) | – | > 25 µM (inactive) | 9.27 µM (inactive) | > 25 µM (inactive) | > 25 µM (inactive) | > 25 µM (inactive) | > 25 µM (inactive) | > 25 µM (inactive) | > 25 µM (inactive) | > 25 µM (inactive) | > 25 µM (inactive) | > 25 µM (inactive) | > 25 µM (inactive) | – | > 25 µM (inactive) | > 25 µM (inactive) | > 25 µM (inactive)
7 | CC(=O)NC1=C(C)C(=O)c2c(nc3n2CC[C@H]3OC(C)=O)C1=O | 1.01 µM (active) | 1.3 µM (inactive) | 3.07 µM (inactive) | 2.22 µM (inactive) | 5.25 µM (inactive) | 1.71 µM (inactive) | 2.38 µM (inactive) | 3.21 µM (inactive) | 1.49 µM (inactive) | 2.1 µM (inactive) | 1.53 µM (inactive) | 0.416 µM (active) | 1.12 µM (active) | 0.774 µM (active) | 0.33 µM (active) | 2.52 µM (inactive) | 2.95 µM (inactive) | – | 1.55 µM (inactive) | 1.51 µM (inactive)
